In assay [1] the target is Phosphatidylinositol 4-phosphate 5-kinase type-1 alpha (Homo sapiens) (UniProt Q99755). The conditions noted are these: at 10 µM.
Assay [2] concerns the target Ribosomal protein S6 kinase alpha-2 (Homo sapiens) (UniProt Q15349). The assay can be described thus: Selectivity interaction (KinomeScan (DiscoverX)) EUB0001079a RPS6KA2. Conditions: at 1 µM.
Assay [3] addresses T1, N-lysine methyltransferase KMT5A (Homo sapiens) (UniProt Q9NQR1).
T1 sequence (whole entry): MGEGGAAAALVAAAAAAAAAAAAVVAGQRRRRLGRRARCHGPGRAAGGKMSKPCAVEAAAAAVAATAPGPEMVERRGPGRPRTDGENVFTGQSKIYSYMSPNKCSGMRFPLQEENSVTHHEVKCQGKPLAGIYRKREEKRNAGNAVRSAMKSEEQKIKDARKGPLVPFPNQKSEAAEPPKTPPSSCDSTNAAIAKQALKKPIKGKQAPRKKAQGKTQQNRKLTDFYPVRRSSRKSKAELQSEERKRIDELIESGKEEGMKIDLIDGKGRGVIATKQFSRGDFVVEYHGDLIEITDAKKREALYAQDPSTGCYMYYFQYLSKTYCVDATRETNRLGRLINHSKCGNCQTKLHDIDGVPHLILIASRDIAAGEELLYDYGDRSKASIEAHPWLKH
Description: Selectivity interaction (Methyltransferase screen (Scintillation proximity assays)) EUB0000255b SETD8. (In general: Scintillation proximity formats need no separation of bound from free tracer.)

For assay [4], the target named is T2, NUAK family SNF1-like kinase 1 (Homo sapiens) (UniProt O60285).
T2 sequence (whole entry): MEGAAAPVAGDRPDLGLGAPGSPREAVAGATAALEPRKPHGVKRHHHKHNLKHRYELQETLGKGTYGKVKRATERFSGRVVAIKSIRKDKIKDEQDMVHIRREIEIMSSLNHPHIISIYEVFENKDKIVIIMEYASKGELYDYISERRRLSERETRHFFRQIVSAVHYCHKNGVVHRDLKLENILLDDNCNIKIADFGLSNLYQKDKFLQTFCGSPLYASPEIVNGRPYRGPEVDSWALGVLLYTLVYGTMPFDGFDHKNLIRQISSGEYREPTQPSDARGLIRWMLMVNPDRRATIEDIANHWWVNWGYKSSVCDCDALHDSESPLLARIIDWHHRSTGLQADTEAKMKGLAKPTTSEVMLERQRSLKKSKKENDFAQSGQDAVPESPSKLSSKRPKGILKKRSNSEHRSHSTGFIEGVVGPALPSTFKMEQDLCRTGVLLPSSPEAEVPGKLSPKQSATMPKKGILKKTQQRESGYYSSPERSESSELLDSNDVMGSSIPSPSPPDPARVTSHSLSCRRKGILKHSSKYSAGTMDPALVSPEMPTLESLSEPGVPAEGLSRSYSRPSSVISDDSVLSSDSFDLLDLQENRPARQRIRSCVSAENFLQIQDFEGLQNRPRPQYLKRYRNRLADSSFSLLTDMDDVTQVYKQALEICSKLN
Description: Selectivity interaction (KinomeScan (DiscoverX)) EUB0000045b NUAK1.

Assay [5] has as its system Tyrosine-protein kinase ABL1 (Homo sapiens), P00519 [Y253F]. Description: Selectivity interaction (SelectScreen profiling (Invitrogen)) EUB0000607a ABL1. The conditions noted are these: at 2 µM.
The target in assay [6] is T3, Interleukin-1 receptor-associated kinase 4 (Homo sapiens) (UniProt Q9NWZ3).
T3 sequence (whole entry): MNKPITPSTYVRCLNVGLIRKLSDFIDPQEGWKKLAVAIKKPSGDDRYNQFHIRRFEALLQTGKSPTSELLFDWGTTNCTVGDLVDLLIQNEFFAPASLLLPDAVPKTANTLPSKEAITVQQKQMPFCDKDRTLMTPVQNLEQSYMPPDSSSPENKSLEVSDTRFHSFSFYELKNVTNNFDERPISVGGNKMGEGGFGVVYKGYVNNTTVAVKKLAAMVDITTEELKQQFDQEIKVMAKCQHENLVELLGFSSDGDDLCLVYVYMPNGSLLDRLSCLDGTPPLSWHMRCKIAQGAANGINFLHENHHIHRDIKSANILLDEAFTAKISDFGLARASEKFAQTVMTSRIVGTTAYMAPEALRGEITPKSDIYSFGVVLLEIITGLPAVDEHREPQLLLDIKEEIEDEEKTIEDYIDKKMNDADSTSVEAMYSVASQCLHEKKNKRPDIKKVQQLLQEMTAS
The assay can be described thus: Selectivity interaction (KinomeScan (DiscoverX)) EUB0000607a IRAK4. The conditions noted are these: at 10 µM.

Assay [7] concerns the target Cyclin-dependent kinase 1/cyclin B (Homo sapiens) (UniProt P06493+P14635+Q8WWL7+O95067). The assay can be described thus: Selectivity interaction (Kinase panel (Invitrogen)) EUB0000639a CDK1. Type of assay: protein-complex assay. Conditions: at 200 nM.
The target in assay [8] is Ribosomal protein S6 kinase alpha-1 (Homo sapiens, UniProt Q15418). Description: Selectivity interaction (ActivX KiNativ screen (kinase selectivity in THP-1 cell lysates)) EUB0000639a RPS6KA1. Format: subcellular. The conditions noted are these: lysate, at 0.04 µM.
Ribosomal protein S6 kinase alpha-1, sequence (Q15418 whole entry): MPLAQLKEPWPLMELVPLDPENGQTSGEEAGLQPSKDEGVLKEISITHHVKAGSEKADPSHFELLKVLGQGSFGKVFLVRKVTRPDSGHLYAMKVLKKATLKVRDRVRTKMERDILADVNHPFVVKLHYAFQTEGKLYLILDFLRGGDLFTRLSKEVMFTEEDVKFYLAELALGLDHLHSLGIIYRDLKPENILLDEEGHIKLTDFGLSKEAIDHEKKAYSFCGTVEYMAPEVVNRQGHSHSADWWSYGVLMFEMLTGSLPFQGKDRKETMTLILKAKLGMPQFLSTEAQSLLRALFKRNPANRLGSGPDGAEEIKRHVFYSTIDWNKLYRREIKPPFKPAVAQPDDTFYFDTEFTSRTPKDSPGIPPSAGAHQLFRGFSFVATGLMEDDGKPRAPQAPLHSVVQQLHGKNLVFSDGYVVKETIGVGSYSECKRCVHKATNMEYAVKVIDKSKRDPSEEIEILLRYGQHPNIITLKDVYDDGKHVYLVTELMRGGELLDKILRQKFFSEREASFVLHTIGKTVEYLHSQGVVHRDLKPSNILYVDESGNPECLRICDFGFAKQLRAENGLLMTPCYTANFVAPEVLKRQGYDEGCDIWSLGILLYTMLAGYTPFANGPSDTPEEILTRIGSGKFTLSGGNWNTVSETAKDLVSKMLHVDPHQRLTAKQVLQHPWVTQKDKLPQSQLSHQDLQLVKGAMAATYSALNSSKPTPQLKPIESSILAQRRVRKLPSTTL
Assay [9] concerns the target Cyclin-dependent kinase 2 (Homo sapiens, UniProt P24941). The assay can be described thus: Selectivity interaction (Kinase panel (DSF assay)) EUB0001559a CDK2.
Assay [10] deals with T4, Dual specificity mitogen-activated protein kinase kinase 5 (Homo sapiens) (UniProt Q13163).
T4 sequence (whole entry): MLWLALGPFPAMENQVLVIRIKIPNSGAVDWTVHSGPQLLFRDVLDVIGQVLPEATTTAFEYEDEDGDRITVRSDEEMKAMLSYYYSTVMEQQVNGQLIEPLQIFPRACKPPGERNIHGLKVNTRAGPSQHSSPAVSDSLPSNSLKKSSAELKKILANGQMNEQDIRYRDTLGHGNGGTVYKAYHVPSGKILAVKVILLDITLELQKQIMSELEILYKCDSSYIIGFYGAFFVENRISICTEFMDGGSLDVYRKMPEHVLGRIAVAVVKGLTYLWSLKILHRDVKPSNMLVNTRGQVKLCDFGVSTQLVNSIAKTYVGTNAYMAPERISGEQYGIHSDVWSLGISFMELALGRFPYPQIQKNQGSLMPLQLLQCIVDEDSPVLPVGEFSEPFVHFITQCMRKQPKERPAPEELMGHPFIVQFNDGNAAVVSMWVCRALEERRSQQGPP
The assay can be described thus: Selectivity interaction (KinomeScan (DiscoverX)) EUB0001619a MAP2K5. The conditions noted are these: at 1 µM.

The target of assay [11] is Interferon-induced, double-stranded RNA-activated protein kinase (Homo sapiens) (UniProt P19525). The assay can be described thus: Selectivity interaction (Kinase panel (KiNativ target engagement assay in Jurkat cells)) EUB0001635a EIF2AK2. Format: cell-based. Conditions: Selectivity number of off-targets 0.0, Selectivity number of targets 233.0, Source Knowledge https://www.sciencedirect.com/science/article/pii/S2451945619300674?via%3Dihub, at 1 µM.
Interferon-induced, double-stranded RNA-activated protein kinase (Homo sapiens), sequence (P19525 whole entry): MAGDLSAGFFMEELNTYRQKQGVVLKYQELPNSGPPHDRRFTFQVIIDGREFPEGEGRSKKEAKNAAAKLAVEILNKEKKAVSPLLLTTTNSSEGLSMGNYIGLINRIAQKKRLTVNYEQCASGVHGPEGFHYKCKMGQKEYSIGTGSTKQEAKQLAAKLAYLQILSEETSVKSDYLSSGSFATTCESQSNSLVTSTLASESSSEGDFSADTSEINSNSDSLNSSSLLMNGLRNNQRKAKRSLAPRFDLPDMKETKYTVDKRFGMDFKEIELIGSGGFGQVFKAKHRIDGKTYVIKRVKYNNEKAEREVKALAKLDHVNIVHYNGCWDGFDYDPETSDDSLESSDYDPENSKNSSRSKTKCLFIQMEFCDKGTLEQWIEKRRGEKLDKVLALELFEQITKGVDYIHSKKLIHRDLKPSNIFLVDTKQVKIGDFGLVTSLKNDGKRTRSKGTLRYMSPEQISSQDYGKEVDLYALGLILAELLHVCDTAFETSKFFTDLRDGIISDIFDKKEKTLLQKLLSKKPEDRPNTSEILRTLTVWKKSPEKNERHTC

The target in assay [12] is Serine/threonine-protein kinase VRK2 (Homo sapiens) (UniProt Q86Y07). Description: Selectivity interaction (KinomeScan (DiscoverX)) EUB0000618a VRK2. Conditions: at 10 µM.
Serine/threonine-protein kinase VRK2 (Homo sapiens), sequence (Q86Y07 whole entry): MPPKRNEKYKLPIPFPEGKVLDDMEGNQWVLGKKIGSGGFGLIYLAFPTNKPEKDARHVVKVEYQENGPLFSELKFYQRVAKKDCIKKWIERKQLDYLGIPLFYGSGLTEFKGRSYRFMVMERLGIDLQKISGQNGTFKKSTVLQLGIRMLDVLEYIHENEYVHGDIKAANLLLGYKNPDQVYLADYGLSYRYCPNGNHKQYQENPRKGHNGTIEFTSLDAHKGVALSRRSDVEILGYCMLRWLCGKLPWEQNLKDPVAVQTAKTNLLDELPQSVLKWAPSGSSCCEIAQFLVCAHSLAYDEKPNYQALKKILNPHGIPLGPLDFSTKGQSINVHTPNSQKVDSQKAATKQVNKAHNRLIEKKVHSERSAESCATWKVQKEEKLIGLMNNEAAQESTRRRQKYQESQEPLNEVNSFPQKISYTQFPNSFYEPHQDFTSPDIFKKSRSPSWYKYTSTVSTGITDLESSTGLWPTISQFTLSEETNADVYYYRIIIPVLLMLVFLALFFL

This note sets out measurements from ChEMBL document CHEMBL5465560, “Selectivity Literature for EUbOPEN Chemogenomic Library” (2024).

Structures are written as SMILES.

Ribosomal protein S6 kinase alpha-2 (Homo sapiens), sequence (Q15349 whole entry): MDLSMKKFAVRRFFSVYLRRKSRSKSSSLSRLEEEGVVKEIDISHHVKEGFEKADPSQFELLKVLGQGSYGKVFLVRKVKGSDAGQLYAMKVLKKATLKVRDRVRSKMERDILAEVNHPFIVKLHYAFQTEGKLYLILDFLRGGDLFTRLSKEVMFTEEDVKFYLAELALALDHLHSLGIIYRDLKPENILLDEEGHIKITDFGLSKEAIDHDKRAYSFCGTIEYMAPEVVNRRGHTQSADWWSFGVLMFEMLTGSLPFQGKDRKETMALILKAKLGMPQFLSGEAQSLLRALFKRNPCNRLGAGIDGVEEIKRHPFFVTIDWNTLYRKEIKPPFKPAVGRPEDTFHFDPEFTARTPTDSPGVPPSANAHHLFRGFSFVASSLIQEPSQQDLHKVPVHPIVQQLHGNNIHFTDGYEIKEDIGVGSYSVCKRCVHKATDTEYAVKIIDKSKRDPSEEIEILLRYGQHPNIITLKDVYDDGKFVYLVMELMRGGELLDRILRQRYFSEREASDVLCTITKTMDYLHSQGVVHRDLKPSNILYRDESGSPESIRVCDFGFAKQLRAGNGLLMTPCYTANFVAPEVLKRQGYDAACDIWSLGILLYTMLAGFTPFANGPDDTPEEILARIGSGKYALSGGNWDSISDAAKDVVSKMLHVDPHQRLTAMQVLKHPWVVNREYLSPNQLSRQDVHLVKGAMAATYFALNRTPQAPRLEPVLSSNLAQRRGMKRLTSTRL
Phosphatidylinositol 4-phosphate 5-kinase type-1 alpha (Homo sapiens), sequence (Q99755 whole entry): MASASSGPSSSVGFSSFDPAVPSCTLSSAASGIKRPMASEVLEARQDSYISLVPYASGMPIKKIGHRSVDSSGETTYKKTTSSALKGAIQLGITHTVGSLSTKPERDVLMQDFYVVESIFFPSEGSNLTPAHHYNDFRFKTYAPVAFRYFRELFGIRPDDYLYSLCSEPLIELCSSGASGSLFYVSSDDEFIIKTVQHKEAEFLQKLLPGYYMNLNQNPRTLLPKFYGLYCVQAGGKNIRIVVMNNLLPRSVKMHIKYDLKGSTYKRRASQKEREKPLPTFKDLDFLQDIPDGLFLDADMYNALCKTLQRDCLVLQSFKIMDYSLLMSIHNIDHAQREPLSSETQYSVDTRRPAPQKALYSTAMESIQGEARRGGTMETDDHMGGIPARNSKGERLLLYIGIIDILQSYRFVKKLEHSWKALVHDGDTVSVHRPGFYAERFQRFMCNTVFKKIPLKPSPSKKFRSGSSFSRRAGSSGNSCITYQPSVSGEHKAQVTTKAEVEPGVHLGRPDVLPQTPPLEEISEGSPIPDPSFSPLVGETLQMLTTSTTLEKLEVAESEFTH

As to `Cc1cc([C@@H](C)Nc2ccccc2C(=O)O)c2nc(N3CCOCC3)cc(=O)n2c1` [AZD-6482], the % of control in assay [1] amounted to 100%.
In [2], `Nc1cnc(N2CCc3cc(S(=O)(=O)Nc4c(F)cc(Cl)cc4F)cc(N4CCCC4=O)c32)nc1` [TP-020n] yielded a % of control of 88%.
With `COCCN1CCC(c2cc(CN(C)C(=O)c3cccc(Oc4ccccc4)c3)ccn2)CC1`, the results for the % activity in assay [3] (at 1 µM) and in assay [3] (at 10 µM) were more than 95% and more than 85%, respectively.
On to `C=CC(=O)Nc1cc(-n2c(=O)ccc3cnc4ccc(-c5ccc(NS(C)(=O)=O)cc5)cc4c32)ccc1C`, for which the % of control is 100% in [4] (at 1 µM) and 76% in [4] (at 10 µM).
`CNC(=O)Nc1ccc(-c2nc(N3CC4CCC(C3)O4)c3cnn(C4CCC5(CC4)OCCO5)c3n2)cc1` had a % of inhibition in assay [5] of 0%. Also, the % of control in assay [6] was 100%.
For the molecule `CC[C@@H]1[C@H](F)C(=O)N[C@@H]1COc1nccc2cc(C(N)=O)c(OC)cc12` [ZIMLOVISERTIB], the values for the % of inhibition in [7] and in assay [8] were 11.5% and 12.4%, respectively.
Turning to `CN(C(=O)c1cnn2cccnc12)c1cc2c(cc1N1CCOCC1)C(=O)N(C[C@@H](F)C(C)(C)O)C2`, the dTM in [9] is -0.3 K.
For the molecule `N#Cc1cccc(-c2c[nH]c3ncnc(N4CCOCC4)c23)c1`, the % of control in assay [10] amounted to 14%.
`C=CC(=O)Nc1ccc(C(=O)Nc2[nH]nc3c2CN(C(=O)N[C@H](CN(C)C)c2ccccc2)C3(C)C)cc1`: in assay [11], the % of engagement is -0.6%.
Take `O[C@H]1CC[C@H](Nc2ncc3nc(Nc4c(F)cc(F)cc4F)n([C@H]4CCOC4)c3n2)CC1`: the % of control in [12] worked out at 100%.
